Source: US10793535B2, “Heterocyclic glutaminase inhibitors” (Calithera Biosciences, Inc., priority 2012, dated 2020)
Where two headings read alike, the source gives them in different places.

How the values were obtained:
[1] = test system: P493-6 (myc "on") cells; assay: Cell proliferation assay; assay type: cell-based; conditions: read-out: Cell prolif P493 72 h IC50
Method: P493-6 (myc “on”) cells were maintained in growth media (RPMI-1640, 10% FBS, 2 mM glutamine, 100 units/ml Penicillin and 100 μg/ml streptomycin) at 37° C. with 5% CO2. For compound assay, P493-6 cells were plated in 96-well V-bottom plates on the day of compound addition in 50 μl of growth media at a cell density of 200,000 cells/ml (10,000 cells/well). Compounds were serially diluted in 100% DMSO at 200-times the final concentration. Compounds were diluted 100-fold into growth media and then 50 μl of this mixture was added to cell plates making the final concentration of DMSO 0.5%. Cells were incubated with compound for 72 hrs at 37° C. with 5% CO2 and analyzed for antiproliferative effects either by Cell Titer Glo (Promega) or FACS analysis using the Viacount (Millipore) kit on the Guava instrument.

[2] = test system: Caco-2 cell monolayers; assay: Caco-2 permeability assay; assay type: in vitro ADME, human
From the text: Caco-2 cells are commonly used in a confluent monolayer on a cell culture insert filter. When cultured in this format and under specific conditions, the cells become differentiated and polarized such that their phenotype, morphologically and functionally resembles the enterocytes lining the small intestine. The cell monolayer provides a physical and biochemical barrier to the passage of small molecules, and is widely used across the pharmaceutical industry as an in vitro model of the human small intestinal mucosa to predict the absorption of orally administered drugs (Hidalgo et al., Gastroenterology, 1989; Artursson, J. Pharm. Sci., 1990). The correlation between the in vitro apparent permeability (P ? app) across Caco-2 monolayers and the in vivo absorption is well established (Artursson et al., Biochem. Biophys. Res. Comm., 1991).
The present assay was used to determine the bidirectional permeability of the compounds of the invention through Caco-2 cell monolayers. Caco-2 cells were grown in confluent monolayers where the media of both the apical (A) and basolateral (B) sides were at pH 7.4. Compounds were dosed at 1 μM in the presence of 200 μM Lucifer Yellow, on the apical side (A→B) or the basolateral side (B→A) for assessment, in duplicate.
The absorption potential of compounds were classified as either Low (P-app<1×10^−6 cm/s) or High (P-app>1×10^−6 cm/s).

[3] = Pharmacokinetic studies in mice; assay type: in vivo; conditions: female, CD-1, mouse, plasma, po, 50 mg/kg, 50 mg/kg oral
Method: For PK studies performed in mice, female CD-1 mice, age 5-8 weeks, were dosed orally by gavage (10 mL/kg volume) with test compounds. At pre-determined time-points (e.g. 1, 3, and 6 hrs) post-dosing, groups of three mice were sacrificed by CO2 inhalation and blood collected via cardiac puncture. Blood samples were placed into K2 EDTA coated tubes and kept on ice. Samples were centrifuged at 2000×g for 10 minutes at 4° C. and plasma isolated. Plasma was stored at ˜70° C. until bioanalytical analysis.
(§1) The plasma samples were analyzed using Liquid chromatography tandem mass spectrometry (LC/MS/MS) methods. Frozen plasma samples were thawed on ice or room temperature. Aliquotes of study plasma samples and calibration samples prepared in the same matrix as the study samples were quenched in an organic solvent (methanol, acetonitrole or DMF) containing an internal standard. The mixtures were then centrifuged and filtered and the filtrates were injected to an LC/MS/MS system to determine concentrations of test compounds.

[4] = Pharmacokinetic studies in rats; assay type: in vivo; conditions: female, Sprague-Dawley, plasma; Rat, 50 mg/kg oral, Eudragit L100-55 solid dispersion, Suspension
Method: For PK studies performed in rats, groups of three female Sprague-Dawley Rats, age 7-10 weeks, with jugular vein cannulae were dosed orally by gavage (5-10 mL/kg) with test compounds. Serial blood samples were collected via the jugular vein cannulae at multiple time-points pre and post-dose. Blood samples were placed into K2 EDTA coated tubes on kept on ice. Samples were centrifuged at 2500×g for 10 minutes at 4° C. and plasma isolated. Plasma was stored at ˜70° C. until bioanalytical analysis.
as §1

[5] = Eudragit L100-55 solid dispersion, Suspension

O=C(Cc1ccccc1)Nc1ccc(CCCCc2nnc(NC(=O)Cc3ccccc3)s2)nn1 [Compound 295]
IC50 ([1]; P493-6, 72 h): 39 nM
Significant Efflux [2]: Yes (efflux ratios being significant when greater than or equal to 3 when the Papp (B→A) was greater than or equal to 1×10^−6 cm/s)
Cmax [3, 5]: 20 nM
Tmax [3, 5]: 6 h

O=C(Cc1ccccc1)Nc1ccc(CCCCc2nnc(NC(=O)C(O)c3cccc(Cl)c3)s2)nn1 (centres unmarked) [Compound 318]
IC50 ([1]; P493-6, 72 h): 17 nM
Significant Efflux [2]: Yes (efflux ratios being significant when greater than or equal to 3 when the Papp (B→A) was greater than or equal to 1×10^−6 cm/s)
Cmax ([3]; 0.5% CMC/0.1% PS80, Suspension): 10 nM
Tmax ([3]; 0.5% CMC/0.1% PS80, Suspension): 1 h
Cmax ([3]; Capryol PGMC, Suspension): 80 nM
Tmax ([3]; Capryol PGMC, Suspension): 3 h

CC(C)(C)OC(=O)NCc1cccc(CC(=O)Nc2nnc(CCCCc3ccc(NC(=O)Cc4ccccc4)nn3)s2)c1 [Compound 339]
IC50 ([1]; P493-6, 72 h): 9 nM
Significant Efflux [2]: Yes (efflux ratios being significant when greater than or equal to 3 when the Papp (B→A) was greater than or equal to 1×10^−6 cm/s)

O=C(Cc1ccccc1)Nc1ccc(CCCCc2nnc(NC(=O)Cc3ccccn3)s2)nn1 [Compound 354]
IC50 ([1]; P493-6, 72 h): 47 nM
Significant Efflux [2]: Yes (efflux ratios being significant when greater than or equal to 3 when the Papp (B→A) was greater than or equal to 1×10^−6 cm/s)

CC(C(=O)Nc1ccc(CCCCc2nnc(NC(=O)Cc3cccc(CNC(=O)OC(C)(C)C)c3)s2)nn1)c1ccccc1 (centres unmarked) [Compound 436]
IC50 ([1]; P493-6, 72 h): 10 nM
Significant Efflux [2]: Yes (efflux ratios being significant when greater than or equal to 3 when the Papp (B→A) was greater than or equal to 1×10^−6 cm/s)

O=C(Cc1cccc(OC(F)(F)F)c1)Nc1ccc(CCCCc2nnc(NC(=O)C(O)c3cccc(Cl)c3)s2)nn1 (centres unmarked) [Compound 447]
IC50 ([1]; P493-6, 72 h): 16 nM
Significant Efflux [2]: Yes (efflux ratios being significant when greater than or equal to 3 when the Papp (B→A) was greater than or equal to 1×10^−6 cm/s)
Cmax ([3]; 2% NMP/98% Gelucire, Solution): 1130 nM
Tmax ([3]; 2% NMP/98% Gelucire, Solution): 1 h

O=C(Cc1ccccc1Cl)Nc1ccc(CCCCc2nnc(NC(=O)Cc3ccccc3F)s2)nn1 [Compound 533]
IC50 ([1]; P493-6, 72 h): 41 nM
Significant Efflux [2]: Yes (efflux ratios being significant when greater than or equal to 3 when the Papp (B→A) was greater than or equal to 1×10^−6 cm/s)

O=C(Cc1cccc(OC(F)(F)F)c1)Nc1ccc(CCCCc2nnc(NC(=O)Cc3ccccc3)s2)nn1 [Compound 585]
IC50 ([1]; P493-6, 72 h): 70 nM
Significant Efflux [2]: Yes (efflux ratios being significant when greater than or equal to 3 when the Papp (B→A) was greater than or equal to 1×10^−6 cm/s)
Cmax [4]: 1150 nM
Tmax [4]: 2 h
Cmax ([3]; 1% NMP/99% Gelucire, Solution): 5160 nM
Tmax ([3]; 1% NMP/99% Gelucire, Solution): 1 h
Cmax [3, 5]: 930 nM
Tmax [3, 5]: 3 h

CC(C(=O)Nc1nnc(CCCCc2ccc(NC(=O)Cc3ccccc3)nn2)s1)c1ccccc1 (centres unmarked) [Compound 616]
IC50 ([1]; P493-6, 72 h): 130 nM
Significant Efflux [2]: Yes (efflux ratios being significant when greater than or equal to 3 when the Papp (B→A) was greater than or equal to 1×10^−6 cm/s)

O=C(Cc1cccc(OC(F)(F)F)c1)Nc1ccc(CCCCc2nnc(NC(=O)Cc3cccc(OC(F)(F)F)c3)s2)nn1 [Compound 660]
IC50 ([1]; P493-6, 72 h): 37 nM
Significant Efflux [2]: Yes (efflux ratios being significant when greater than or equal to 3 when the Papp (B→A) was greater than or equal to 1×10^−6 cm/s)

O=C(Cc1cccc(OC(F)(F)F)c1)Nc1ccc(CCCCc2nnc(NC(=O)Cc3cccc(F)c3)s2)nn1 [Compound 679]
IC50 ([1]; P493-6, 72 h): 36 nM
Significant Efflux [2]: No

O=C(Cc1cccc(OC(F)(F)F)c1)Nc1ccc(CCCCc2nnc(NC(=O)[C@@H](O)c3ccccc3)s2)nn1 [Compound 703]
IC50 ([1]; P493-6, 72 h): 12 nM
Significant Efflux [2]: Yes (efflux ratios being significant when greater than or equal to 3 when the Papp (B→A) was greater than or equal to 1×10^−6 cm/s)

O=C(Cc1cccc(OC(F)(F)F)c1)Nc1ccc(CCCCc2nnc(NC(=O)[C@H](O)c3ccccc3)s2)nn1 [Compound 705]
IC50 ([1]; P493-6, 72 h): 32 nM
Significant Efflux [2]: Yes (efflux ratios being significant when greater than or equal to 3 when the Papp (B→A) was greater than or equal to 1×10^−6 cm/s)

[2H]C([2H])(CCc1nnc(NC(=O)Cc2ccccn2)s1)C([2H])([2H])c1ccc(NC(=O)Cc2cccc(OC(F)(F)F)c2)nn1 [Compound 727]
IC50 ([1]; 72 h): 12 nM

Cc1cccc(CC(=O)Nc2nnc(CCCCc3ccc(NC(=O)Cc4cccc(OC(F)(F)F)c4)nn3)s2)n1 [Compound 728]
IC50 ([1]; P493-6, 72 h): 18 nM

COc1cc(CC(=O)Nc2ccc(CCCCc3nnc(NC(=O)Cc4ccccn4)s3)nn2)cc(OC(F)(F)F)c1 [Compound 729]
IC50 ([1]; P493-6, 72 h): 26 nM

O=C(Cc1cc(O)cc(OC(F)(F)F)c1)Nc1ccc(CCCCc2nnc(NC(=O)Cc3ccccn3)s2)nn1 [Compound 730]
IC50 ([1]; P493-6, 72 h): 25 nM
